Target: T1, Trx-6×His-BCL6 (human BCL6 BTB domain covering amino-acid sequence 5-129) (Homo sapiens, UniProt P41182)
T1 construct: made in house
Assay: HTRF assay (BCL6 / BCOR peptide)
Assay type: binding
Settings: 1 nM Trx-6×His-BCL6, 300 nM BCOR-AF633 peptide, 2 hours incubation at room temperature
Method: After 2 hours incubation at room temperature the plate was read on a Pherastar FSX (BMG Labtech) plate reader equipped with 337 nm laser excitation filter, a first emission filter at 620 nm and a second emission filter at 665 nm. The % inhibition at each concentration was calculated by normalising FRET ratio to the appropriate high (DMSO with all reagents) and low (DMSO without BCL6) controls.

| Compound | HTRF avg pIC50 |
| --- | --- |
| Cn1c(=O)c2c(c3cc(Nc4nc(N5CCC[C@H](O)C5)ncc4Cl)ccc31)N[C@@H](C1CC1)C(F)(F)CO2 [Example 1i, (S)-10-((5-chloro-2-((S)-3-hydroxypiperidin-1-yl)pyrimidin-4-yl)amino)-2-cyclopropyl-3,3-difluoro-7-methyl-1,2,3,4-tetrahydro-[1,4]oxazepino[2,3-c]quinolin-6(7H)-one] | 8.51 |
| (S)-10-((5-chloro-2-((R)-4,4-difluoro-3-methylpiperidin-1-yl)pyrimidin-4-yl)amino)-2-cyclopropyl-3,3-difluoro-7-methyl-1,2,3,4-tetrahydro-[1,4]oxazepino[2,3-c]quinolin-6(7H)-one or (S)-10-((5-chloro-2-((S)-4,4-difluoro-3-methylpiperidin-1-yl)pyrimidin-4-yl)amino)-2-cyclopropyl-3,3-difluoro-7-methyl-1,2,3,4-tetrahydro-[1,4]oxazepino[2,3-c]quinolin-6(7H)-one [Example 14b] | 7.33 |

Same assay, conditions: 1 nM Trx-6×His-BCL6, 300 nM BCOR-AF633 peptide, 2 hours incubation at room temperature; read-out: HTRF avg pIC50 (converted)

| IC50 | Compound |
| --- | --- |
| 14.5 nM | Cn1c(=O)c2c(c3cc(Nc4nc(NC5CCC(F)(F)CC5)ncc4Cl)ccc31)N[C@@H](C1CC1)C(F)(F)CO2 [Example 12x24, (S)-10-((5-chloro-2-((4,4-difluorocyclohexyl)amino)pyrimidin-4-yl)amino)-2-cyclopropyl-3,3-difluoro-7-methyl-1,2,3,4-tetrahydro-[1,4]oxazepino[2,3-c]quinolin-6(7H)-one] |
| 3.55 nM | COC1(C)CN(c2ncc(Cl)c(Nc3ccc4c(c3)c3c(c(=O)n4C)OCC(F)(F)[C@H](C4CC4)N3)n2)C1 [Example 11x, (S)-10-((5-chloro-2-(3-methoxy-3-methylazetidin-1-yl)pyrimidin-4-yl)amino)-2-cyclopropyl-3,3-difluoro-7-methyl-1,2,3,4-tetrahydro-[1,4]oxazepino[2,3-c]quinolin-6(7H)-one] |
| 2.51 nM | CN(C)C(=O)C1CC(F)CN(c2ncc(Cl)c(Nc3ccc4c(c3)c3c(c(=O)n4C)OCC(F)(F)[C@H](C4CC4)N3)n2)C1 (stereo partly drawn) [Example 12x39, 1-(5-chloro-4-(((S)-2-cyclopropyl-3,3-difluoro-7-methyl-6-oxo-1,2,3,4,6,7-hexahydro-[1,4]oxazepino[2,3-c]quinolin-10-yl)amino)pyrimidin-2-yl)-5-fluoro-N,N-dimethylpiperidine-3-carboxamide] |
| 46.8 nM | CC1CCN(c2ncc(Cl)c(Nc3ccc4c(c3)c3c(c(=O)n4C)OCC(F)(F)[C@H](C4CC4)N3)n2)CC1C (mixture of isomers) [Example 12x07, (2S)-10-((5-chloro-2-(3,4-dimethylpiperidin-1-yl)pyrimidin-4-yl)amino)-2-cyclopropyl-3,3-difluoro-7-methyl-1,2,3,4-tetrahydro-[1,4]oxazepino[2,3-c]quinolin-6(7H)-one] |
| 2.95 nM | Cn1c(=O)c2c(c3cc(Nc4nc(N5C[C@@H](O)C[C@@H](F)C5)ncc4Cl)ccc31)N[C@@H](C1CC1)C(F)(F)CO2 [Example 9a-2, (S)-10-((5-chloro-2-((3R,5S)-3-fluoro-5-hydroxypiperidin-1-yl)pyrimidin-4-yl)amino)-2-cyclopropyl-3,3-difluoro-7-methyl-1,2,3,4-tetrahydro-[1,4]oxazepino[2,3-c]quinolin-6(7H)-one] |
| 7.76 nM | Cn1c(=O)c2c(c3cc(Nc4nc(N5CC[C@@H]5CO)ncc4Cl)ccc31)N[C@@H](C1CC1)C(F)(F)CO2 [Example 12x33b, (S)-10-((5-chloro-2-((R)-2-(hydroxymethyl)azetidin-1-yl)pyrimidin-4-yl)amino)-2-cyclopropyl-3,3-difluoro-7-methyl-1,2,3,4-tetrahydro-[1,4]oxazepino[2,3-c]quinolin-6(7H)-one] |
| 2.29 nM | Cn1c(=O)c2c(c3cc(Nc4nc(N5CCC(F)(F)C(CC(N)=O)C5)ncc4Cl)ccc31)N[C@@H](C1CC1)C(F)(F)CO2 (mixture of isomers) [Example 9g] |
| 2.63 nM | Cn1c(=O)c2c(c3cc(Nc4nc(N5CC(O)CC6(CCC6)C5)ncc4Cl)ccc31)N[C@@H](C1CC1)C(F)(F)CO2 (mixture of isomers) [Example 12j, (S)-10-((5-chloro-2-((R)-8-hydroxy-6-azaspiro[3.5]nonan-6-yl)pyrimidin-4-yl)amino)-2-cyclopropyl-3,3-difluoro-7-methyl-1,2,3,4-tetrahydro-[1,4]oxazepino[2,3-c]quinolin-6(7H)-one:(S)-10-((5-chloro-2-((S)-8-hydroxy-6-azaspiro[3.5]nonan-6-yl)pyrimidin-4-yl)amino)-2-cyclopropyl-3,3-difluoro-7-methyl-1,2,3,4-tetrahydro-[1,4]oxazepino[2,3-c]quinolin-6(7H)-one (1:1)] |
| 7.08 nM | Cn1c(=O)c2c(c3cc(Nc4nc(N5CCC(F)(F)CC5CO)ncc4Cl)ccc31)N[C@@H](C1CC1)C(F)(F)CO2 (mixture of isomers) [Example 12x50, (2S)-10-((5-chloro-2-(4,4-difluoro-2-(hydroxymethyl)piperidin-1-yl)pyrimidin-4-yl)amino)-2-cyclopropyl-3,3-difluoro-7-methyl-1,2,3,4-tetrahydro-[1,4]oxazepino[2,3-c]quinolin-6(7H)-one] |
| 19.5 nM | Cn1c(=O)c2c(c3cc(Nc4nc(N5C[C@H](F)C[C@H](F)C5)ncc4Cl)ccc31)N[C@@H](C1CC1)C(F)(F)CO2 [Example 9s, (S)-10-((5-chloro-2-((3S,5R)-3,5-difluoropiperidin-1-yl)pyrimidin-4-yl)amino)-2-cyclopropyl-3,3-difluoro-7-methyl-1,2,3,4-tetrahydro-[1,4]oxazepino[2,3-c]quinolin-6(7H)-one] |
| 22.4 nM | Cn1c(=O)c2c(c3cc(Nc4nc(N5CCC(F)(F)CC5)ncc4F)ccc31)N[C@@H](C1CC1)C(F)(F)CO2 [Example 2b, (S)-2-cyclopropyl-10-((2-(4,4-difluoropiperidin-1-yl)-5-fluoropyrimidin-4-yl)amino)-3,3-difluoro-7-methyl-1,2,3,4-tetrahydro-[1,4]oxazepino[2,3-c]quinolin-6(7H)-one] |
| 0.776 nM | CC(=O)N1CC2CCC(C1)N2c1ncc(Cl)c(Nc2ccc3c(c2)c2c(c(=O)n3C)OCC(F)(F)[C@H](C3CC3)N2)n1 (single isomer, unassigned) [Example 7a] |
| 3.8 nM | CC1CC(C(=O)N2CC(F)(F)C2)CN(c2ncc(Cl)c(Nc3ccc4c(c3)c3c(c(=O)n4C)OCC(F)(F)[C@H](C4CC4)N3)n2)C1 (stereo partly drawn) [Example 12x31, (2S)-10-((5-chloro-2-(3-(3,3-difluoroazetidine-1-carbonyl)-5-methylpiperidin-1-yl)pyrimidin-4-yl)amino)-2-cyclopropyl-3,3-difluoro-7-methyl-1,2,3,4-tetrahydro-[1,4]oxazepino[2,3-c]quinolin-6(7H)-one] |
| 2.88 nM | Cn1c(=O)c2c(c3cc(Nc4nc(N5CCC[C@@H](CO)C5)ncc4Cl)ccc31)N[C@@H](C1CC1)C(F)(F)CO2 [Example 9p, (S)-10-((5-chloro-2-((R)-3-(hydroxymethyl)piperidin-1-yl)pyrimidin-4-yl)amino)-2-cyclopropyl-3,3-difluoro-7-methyl-1,2,3,4-tetrahydro-[1,4]oxazepino[2,3-c]quinolin-6(7H)-one] |
| 1.62 nM | CC1CN(c2ncc(Cl)c(Nc3ccc4c(c3)c3c(c(=O)n4C)OCC(F)(F)[C@H](C4CC4)N3)n2)CC(C)S1(=O)=O (stereo partly drawn) [Example 12x11, (2S)-10-((5-chloro-2-(2,6-dimethyl-1,1-dioxidothiomorpholino)pyrimidin-4-yl)amino)-2-cyclopropyl-3,3-difluoro-7-methyl-1,2,3,4-tetrahydro-[1,4]oxazepino[2,3-c]quinolin-6(7H)-one] |

| Compound | IC50 |
| --- | --- |
| Cn1c(=O)c2c(c3cc(Nc4nc(N5CCC[C@@H](O)C5)ncc4Cl)ccc31)N[C@@H](C1CC1)C(F)(F)CO2 [Example 1j, (S)-10-((5-chloro-2-((R)-3-hydroxypiperidin-1-yl)pyrimidin-4-yl)amino)-2-cyclopropyl-3,3-difluoro-7-methyl-1,2,3,4-tetrahydro-[1,4]oxazepino[2,3-c]quinolin-6(7H)-one] | 2.95 nM |

From patent US12528826B2, “[1,4]oxazepino[2,3-c]quinolinone derivatives as BCL6 inhibitors” (Cancer Research Technology Limited, priority 2019, dated 2026)
